This note sets out measurements from paper PMC7180948, “New Insights into 4-Anilinoquinazolines as Inhibitors of Cardiac Troponin I–Interacting Kinase (TNNi3K)” (Molecules, 2020).

Experiment in all cases: biochemical
Set-up in all cases: KINOMEscan competition binding panel (Eurofins DiscoverX), single concentration, % inhibition
What all share (conditions): read-out: 7 at 1 µM % inhibition

For assay [1], the target named is PRKG1 (Homo sapiens, UniProt Q13976). In short, it runs like this: (§1)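 A single 1 µM concentration of each compound is screened across upwards of 400 human kinases using the KINOMEscan format.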
The target in assay [2] is HIPK4 (Homo sapiens, UniProt Q8NE63). The method in brief: as §1
Chain of HIPK4 (Q8NE63 whole entry): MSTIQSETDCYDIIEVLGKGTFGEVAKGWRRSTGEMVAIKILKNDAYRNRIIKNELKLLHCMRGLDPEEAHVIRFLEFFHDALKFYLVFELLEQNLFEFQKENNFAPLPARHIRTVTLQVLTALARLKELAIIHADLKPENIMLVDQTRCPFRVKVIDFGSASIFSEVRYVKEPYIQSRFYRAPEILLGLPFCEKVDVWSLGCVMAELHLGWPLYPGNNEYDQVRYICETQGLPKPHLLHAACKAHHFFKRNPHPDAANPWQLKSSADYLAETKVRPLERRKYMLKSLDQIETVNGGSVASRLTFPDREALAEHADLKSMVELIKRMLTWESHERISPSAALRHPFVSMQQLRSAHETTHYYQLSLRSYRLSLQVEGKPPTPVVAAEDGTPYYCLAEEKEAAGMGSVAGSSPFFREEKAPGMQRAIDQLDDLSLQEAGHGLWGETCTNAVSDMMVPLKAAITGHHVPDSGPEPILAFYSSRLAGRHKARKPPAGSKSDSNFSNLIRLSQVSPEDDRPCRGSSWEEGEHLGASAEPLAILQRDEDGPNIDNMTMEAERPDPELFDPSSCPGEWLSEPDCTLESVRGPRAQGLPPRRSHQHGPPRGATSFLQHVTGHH
The target in assay [3] is KIT-autoinhibited (Homo sapiens, UniProt P10721). The method in brief:
as §1

Assay [4] concerns the target PAK1 (Homo sapiens, UniProt Q13153). The method in brief: as §1
The target of assay [5] is TAOK3 (Homo sapiens, UniProt Q9H2K8). The method in brief:
as §1

For assay [6], the target named is T1, p38-delta (Homo sapiens, UniProt O15264).
T1 construct: gene MAPK13
In short, it runs like this:
as §1

For assay [7], the target named is CAMKK1 (Homo sapiens, UniProt Q8N5S9). The method in brief:
as §1

The target of assay [8] is T2, MST1 (Homo sapiens, UniProt Q13043).
T2 construct: gene STK4
T2 sequence (Q13043 whole entry): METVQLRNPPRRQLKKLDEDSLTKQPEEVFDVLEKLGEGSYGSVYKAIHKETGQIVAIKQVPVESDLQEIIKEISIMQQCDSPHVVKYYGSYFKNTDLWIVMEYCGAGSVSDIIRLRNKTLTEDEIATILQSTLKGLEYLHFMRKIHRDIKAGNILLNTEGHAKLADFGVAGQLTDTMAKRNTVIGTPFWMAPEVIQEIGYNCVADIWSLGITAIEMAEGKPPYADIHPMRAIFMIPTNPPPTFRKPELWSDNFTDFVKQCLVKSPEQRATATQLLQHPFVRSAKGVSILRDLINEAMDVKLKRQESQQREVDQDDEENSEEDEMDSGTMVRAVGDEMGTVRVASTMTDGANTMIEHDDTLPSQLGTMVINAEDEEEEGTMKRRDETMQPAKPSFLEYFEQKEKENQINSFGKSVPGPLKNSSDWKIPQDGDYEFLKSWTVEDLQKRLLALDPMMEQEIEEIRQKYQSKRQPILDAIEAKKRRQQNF
The method in brief: as §1

In assay [9] the target is CSNK2A2 (Homo sapiens, UniProt P19784). In short, it runs like this: as §1
Chain of CSNK2A2 (P19784 whole entry): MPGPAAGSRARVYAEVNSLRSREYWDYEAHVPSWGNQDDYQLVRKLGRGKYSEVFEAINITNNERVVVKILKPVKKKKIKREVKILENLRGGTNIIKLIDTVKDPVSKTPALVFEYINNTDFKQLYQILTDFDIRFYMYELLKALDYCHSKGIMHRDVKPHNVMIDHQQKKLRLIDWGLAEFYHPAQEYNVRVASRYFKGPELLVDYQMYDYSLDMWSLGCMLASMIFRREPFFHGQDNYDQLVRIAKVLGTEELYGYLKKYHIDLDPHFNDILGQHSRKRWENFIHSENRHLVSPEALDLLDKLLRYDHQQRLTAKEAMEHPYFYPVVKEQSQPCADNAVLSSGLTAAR
For assay [10], the target named is GRK1 (Homo sapiens, UniProt Q15835). In short, it runs like this:
as §1

Assay [11] concerns the target RET(V804M) (Homo sapiens, UniProt P07949, V804M). In short, it runs like this:
as §1

The target in assay [12] is PIK3C2B (Homo sapiens, UniProt O00750). In short, it runs like this: as §1
Assay [13] deals with AKT2 (Homo sapiens, UniProt P31751). The method in brief:
as §1

Assay [14] has as its target MTOR (Homo sapiens, UniProt P42345). The method in brief: as §1
Assay [15] has as its target TIE1 (Homo sapiens, UniProt P35590). The method in brief:
as §1

For assay [16], the target named is MET(M1250T) (Homo sapiens, UniProt P08581, M1250T). The method in brief: as §1
Chain of MET(M1250T) (P08581 whole entry M1250T): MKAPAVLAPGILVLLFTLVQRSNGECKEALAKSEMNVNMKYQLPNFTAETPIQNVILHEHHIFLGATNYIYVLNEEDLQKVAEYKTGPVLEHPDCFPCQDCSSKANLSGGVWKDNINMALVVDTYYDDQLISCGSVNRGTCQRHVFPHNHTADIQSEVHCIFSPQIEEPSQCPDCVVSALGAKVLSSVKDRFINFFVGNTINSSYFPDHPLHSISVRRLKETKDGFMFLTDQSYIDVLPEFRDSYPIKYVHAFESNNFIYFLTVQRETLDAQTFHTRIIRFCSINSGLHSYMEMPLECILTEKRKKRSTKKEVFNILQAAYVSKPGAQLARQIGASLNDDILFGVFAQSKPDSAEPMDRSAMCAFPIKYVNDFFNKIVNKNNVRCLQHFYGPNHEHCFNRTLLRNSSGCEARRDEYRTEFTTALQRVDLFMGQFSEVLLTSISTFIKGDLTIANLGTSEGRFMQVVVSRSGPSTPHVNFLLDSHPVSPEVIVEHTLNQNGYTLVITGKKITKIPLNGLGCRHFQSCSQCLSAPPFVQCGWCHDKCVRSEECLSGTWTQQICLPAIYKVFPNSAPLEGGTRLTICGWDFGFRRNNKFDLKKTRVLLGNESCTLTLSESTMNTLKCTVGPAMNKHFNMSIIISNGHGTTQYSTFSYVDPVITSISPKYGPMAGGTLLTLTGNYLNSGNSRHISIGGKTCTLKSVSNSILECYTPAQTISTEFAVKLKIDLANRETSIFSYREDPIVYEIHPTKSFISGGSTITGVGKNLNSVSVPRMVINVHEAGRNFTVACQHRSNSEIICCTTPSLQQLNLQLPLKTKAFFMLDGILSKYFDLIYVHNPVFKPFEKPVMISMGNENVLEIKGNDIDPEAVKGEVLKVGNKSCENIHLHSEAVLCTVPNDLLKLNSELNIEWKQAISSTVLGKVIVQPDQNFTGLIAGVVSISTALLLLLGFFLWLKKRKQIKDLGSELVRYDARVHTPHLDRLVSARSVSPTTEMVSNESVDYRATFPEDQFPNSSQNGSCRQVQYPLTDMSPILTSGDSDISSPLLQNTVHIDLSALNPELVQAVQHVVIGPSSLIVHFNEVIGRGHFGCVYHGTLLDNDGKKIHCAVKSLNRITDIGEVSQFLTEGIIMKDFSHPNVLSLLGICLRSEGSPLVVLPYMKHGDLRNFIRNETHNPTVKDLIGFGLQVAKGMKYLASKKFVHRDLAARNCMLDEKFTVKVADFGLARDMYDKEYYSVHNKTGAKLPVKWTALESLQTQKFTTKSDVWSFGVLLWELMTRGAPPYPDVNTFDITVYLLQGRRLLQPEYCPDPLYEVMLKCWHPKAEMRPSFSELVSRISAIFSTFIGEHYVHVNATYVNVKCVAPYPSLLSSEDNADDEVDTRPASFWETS
Assay [17] deals with T3, ADCK4 (Homo sapiens, UniProt Q96D53).
T3 construct: gene COQ8B
The method in brief: as §1

In assay [18] the target is T4, MLK3 (Homo sapiens, UniProt Q16584).
T4 construct: gene MAP3K11
In short, it runs like this:
as §1

Assay [19] has as its target PIK3CA (Homo sapiens, UniProt P42336). In short, it runs like this: as §1
Assay [20] has as its target T5, ABL1(F317I)-phosphorylated (Homo sapiens, UniProt P00519, F317I).
T5 construct: phosphorylated
The method in brief:
as §1

Assay [21] addresses MARK1 (Homo sapiens, UniProt Q9P0L2). In short, it runs like this:
as §1

In assay [22] the target is RIOK2 (Homo sapiens, UniProt Q9BVS4). The method in brief: as §1
The target of assay [23] is T6, PCTK3 (Homo sapiens, UniProt Q07002).
T6 construct: gene CDK18
The method in brief:
as §1

Assay [24] addresses ACVR2B (Homo sapiens, UniProt Q13705). In short, it runs like this:
as §1

Chain of RET(V804M) (P07949 whole entry V804M): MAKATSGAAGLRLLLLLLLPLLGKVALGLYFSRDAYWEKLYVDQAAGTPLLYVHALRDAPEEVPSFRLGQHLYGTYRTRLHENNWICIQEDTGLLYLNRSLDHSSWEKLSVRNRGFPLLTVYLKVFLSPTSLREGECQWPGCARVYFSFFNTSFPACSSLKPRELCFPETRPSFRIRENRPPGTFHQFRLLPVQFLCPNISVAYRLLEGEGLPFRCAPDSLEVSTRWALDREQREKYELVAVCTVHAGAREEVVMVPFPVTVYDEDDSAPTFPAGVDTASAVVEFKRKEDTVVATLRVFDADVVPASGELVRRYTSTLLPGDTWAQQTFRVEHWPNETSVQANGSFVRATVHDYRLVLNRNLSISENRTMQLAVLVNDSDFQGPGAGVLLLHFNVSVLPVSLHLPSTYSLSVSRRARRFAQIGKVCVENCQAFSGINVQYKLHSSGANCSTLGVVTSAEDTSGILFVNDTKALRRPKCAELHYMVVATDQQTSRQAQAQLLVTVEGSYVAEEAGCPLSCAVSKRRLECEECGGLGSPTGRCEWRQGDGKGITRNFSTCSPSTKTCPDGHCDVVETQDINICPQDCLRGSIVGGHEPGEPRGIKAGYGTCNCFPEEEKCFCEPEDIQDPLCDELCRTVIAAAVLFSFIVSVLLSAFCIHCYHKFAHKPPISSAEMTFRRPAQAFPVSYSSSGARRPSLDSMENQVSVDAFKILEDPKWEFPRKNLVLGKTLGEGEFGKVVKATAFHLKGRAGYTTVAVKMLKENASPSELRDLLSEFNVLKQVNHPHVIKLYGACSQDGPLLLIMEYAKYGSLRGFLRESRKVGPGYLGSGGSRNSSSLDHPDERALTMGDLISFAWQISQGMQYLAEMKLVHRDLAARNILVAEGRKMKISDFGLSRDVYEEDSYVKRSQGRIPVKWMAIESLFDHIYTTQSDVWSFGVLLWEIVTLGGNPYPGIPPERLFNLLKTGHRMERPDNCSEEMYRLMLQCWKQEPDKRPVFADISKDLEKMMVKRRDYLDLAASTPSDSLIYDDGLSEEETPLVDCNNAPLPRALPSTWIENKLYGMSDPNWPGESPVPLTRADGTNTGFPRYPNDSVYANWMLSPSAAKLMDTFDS
Chain of TIE1 (P35590 whole entry): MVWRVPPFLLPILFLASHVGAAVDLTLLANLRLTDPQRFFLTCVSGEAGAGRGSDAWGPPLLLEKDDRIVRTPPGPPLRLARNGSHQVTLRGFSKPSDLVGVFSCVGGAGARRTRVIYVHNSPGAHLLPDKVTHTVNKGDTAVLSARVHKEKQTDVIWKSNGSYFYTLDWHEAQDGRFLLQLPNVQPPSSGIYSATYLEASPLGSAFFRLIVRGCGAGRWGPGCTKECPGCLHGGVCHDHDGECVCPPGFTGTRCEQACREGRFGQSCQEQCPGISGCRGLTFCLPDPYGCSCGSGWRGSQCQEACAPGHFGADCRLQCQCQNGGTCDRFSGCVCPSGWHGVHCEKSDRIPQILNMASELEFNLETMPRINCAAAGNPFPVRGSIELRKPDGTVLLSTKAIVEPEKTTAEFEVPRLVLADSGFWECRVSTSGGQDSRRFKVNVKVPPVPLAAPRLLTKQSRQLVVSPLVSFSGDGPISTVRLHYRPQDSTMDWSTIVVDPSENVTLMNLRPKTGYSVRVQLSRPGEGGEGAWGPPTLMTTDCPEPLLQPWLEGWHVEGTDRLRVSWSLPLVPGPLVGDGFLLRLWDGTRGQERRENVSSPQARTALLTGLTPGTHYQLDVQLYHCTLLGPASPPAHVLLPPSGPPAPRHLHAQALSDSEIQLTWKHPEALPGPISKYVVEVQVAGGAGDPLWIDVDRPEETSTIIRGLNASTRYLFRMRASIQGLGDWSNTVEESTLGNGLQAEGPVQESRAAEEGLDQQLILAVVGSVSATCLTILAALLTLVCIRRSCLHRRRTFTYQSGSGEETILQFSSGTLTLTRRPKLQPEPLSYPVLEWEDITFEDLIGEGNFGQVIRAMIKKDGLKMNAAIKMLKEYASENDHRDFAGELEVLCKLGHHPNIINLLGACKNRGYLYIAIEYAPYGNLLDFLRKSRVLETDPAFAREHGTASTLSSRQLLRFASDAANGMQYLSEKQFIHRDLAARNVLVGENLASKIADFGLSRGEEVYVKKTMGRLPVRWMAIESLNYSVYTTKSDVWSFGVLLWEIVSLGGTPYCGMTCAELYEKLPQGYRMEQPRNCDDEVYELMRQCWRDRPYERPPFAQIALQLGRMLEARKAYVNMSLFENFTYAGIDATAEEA

For orientation: inhibition means the share of the control response that was lost under treatment. Regarding `CNS(=O)(=O)c1ccc(N(C)C)c(Nc2ncnc3cc(OC)c(OC)cc23)c1` [compound 7, 3-((6,7-dimethoxyquinazolin-4-yl)amino)-4-(dimethylamino)-N-methylbenzenesulfonamide], the inhibition at 1 µM in assay [1] amounted to 0%; in assay [2], 13%; in assay [3], 22%; in assay [4], 0%; in [5] it was 29%; in [6] it was 0%. Besides, the inhibition at 1 µM in assay [7] is 5%; in assay [8] it was 21%; in assay [9], 13%; in assay [10] it was 0%; in assay [11], 0%; in assay [12] it was 77%. Also, the inhibition at 1 µM in [13], in assay [14], in assay [15], in [16], in assay [17] and in assay [18] was 0% each time. Moreover, the inhibition at 1 µM amounted to 51% in assay [19]; 40% in assay [20]; 7% in assay [21]; 0% in assay [22]; 0% in assay [23]; 6% in assay [24].
